How the values were obtained:
Solubility in PGMEA = type: physicochemical; conditions: for Solubility in PGMEA: solvent PGMEA (propylene glycol monomethyl ether acetate)
[1] = Thermal stability of films (chromaticity): ΔE before and after hard baking; type: physicochemical; conditions: for ΔEab after baking at 230° C. for 1 h: dye in alkaline soluble acrylic resin film on glass, hard baked at 230° C. under air for 1 h, CIE Lab, D65/10
Experimental: 1.15 g of alkaline soluble acrylic resin solution (MIPHOTO RPR4022, supplied from Miwan Commercial Co., Ltd., 40 wt % of solid content in methyl 3-methoxypropionate) was mixed with 1.73 g of PGMEA (60 wt %). 0.189 g of Dye 1 was mixed in the alkaline soluble resin/PGMEA solution and stirred for 2 hours at room temperature using a shaker. The solution was filtered through a 0.45 μm PTFE filter to remove large particles. Then the filtered solution was spin coated onto a clean glass substrate with 400 rpm spin speed for 18 seconds. The obtained film was first dried at 90° C. under air atmosphere for 30 minutes, and then hard baked at 230° C. under air atmosphere for 1 hour. The CIE values (xyY values and lab values) and the transmittance were measured before and after the hard bake.
(4) Thermal Stability of Films (Chromaticity):
The wet film after spin coating is dried in oven at 90° C. for 30 minutes and then soft baked at 150° C. for 15 minutes. The chromaticity coordinates (L, a, b) are recorded with UltraScan Pro (Hunterlab) colorimeter. D65/10 light source is used and results are based on CIE Lab coordinates. After that the film is hard baked at target temperature (230° C.) for 1 hour and the new chromaticity coordinates (L′, a′, b′) are recorded with the method above. The thermal stability of a film is indicated by the difference of chromaticity coordinate before and after hard baking represented by the following formula;
ΔE=√{square root over ((L−L′)^2+(a−a′)^2+(b−b′)^2)}

[2] = comparison in words, referring to Table 1

## Cc1cc(C)c(Nc2ccc(Nc3c(C)cc(O)cc3C)c3c2C(=O)c2ccccc2C3=O)c(C)c1 [(1-((4-hydroxy-2,6-dimethylphenyl)amino)-4-(mesitylamino)-anthraquinone]
Solubility in PGMEA
  Solubility in PGMEA: 3.0 wt %
[1]
  ΔEab after baking at 230° C. for 1 h: 6.8

## C=CCN(CC=C)C(=O)COc1cc(C)c(Nc2ccc(Nc3c(C)cc(C)cc3C)c3c2C(=O)c2ccccc2C3=O)c(C)c1 [Dye 1, N,N-diallyl-acetamide modified anthraquinone]
Solubility in PGMEA; [2]
  solubility in PEGMEA compared with the Comparative Examples: significant improvement
Solubility in PGMEA
  Solubility in PGMEA: 6.2 wt %
[1]; [2]
  thermal stability compared with the Comparative Examples: significant improvement
[1]
  ΔEab after baking at 230° C. for 1 h: 2.1

## CC(C)Nc1ccc(NC(C)C)c2c1C(=O)c1ccccc1C2=O [Solvent Blue 36]
Solubility in PGMEA
  Solubility in PGMEA: 1.9 wt %
[1]
  ΔEab after baking at 230° C. for 1 h: 33 (color almost

## Cc1cc(C)c(Nc2ccc(Nc3c(C)cc(C)cc3C)c3c2C(=O)c2ccccc2C3=O)c(C)c1 [Solvent Blue 104, 1,4-bis(mesitylamino)anthraquinone]
Solubility in PGMEA
  Solubility in PGMEA: 0.6 wt %
[1]
  ΔEab after baking at 230° C. for 1 h: 7.9

— US20170137625A1, “ANTHRAQUINONE COMPOUND USED FOR COLOR FILTER OF LCD” (Dow Global Technologies LLC, priority 2014, published 2017)
